# Data as given in publication PMC7479175, “Selection of Potent Inhibitors of Soluble Epoxide Hydrolase for Usage in Veterinary Medicine” (Frontiers in Veterinary Science, 2020).
# Where two headings read alike, the source gives them in different places.
# Tests used:
# Format in all cases: biochemical
# Dog sEH [1] = target: T1, Dog sEH (Canis lupus familiaris, UniProt A0A8I3NJL8); assay: Secondary screen (kinetic mode), PHOME substrate; settings: [I] = 100 nM, secondary kinetic mode screening; read-out: Dog sEH Inhibition (%) S.
# T1 sequence (A0A8I3NJL8 1-556): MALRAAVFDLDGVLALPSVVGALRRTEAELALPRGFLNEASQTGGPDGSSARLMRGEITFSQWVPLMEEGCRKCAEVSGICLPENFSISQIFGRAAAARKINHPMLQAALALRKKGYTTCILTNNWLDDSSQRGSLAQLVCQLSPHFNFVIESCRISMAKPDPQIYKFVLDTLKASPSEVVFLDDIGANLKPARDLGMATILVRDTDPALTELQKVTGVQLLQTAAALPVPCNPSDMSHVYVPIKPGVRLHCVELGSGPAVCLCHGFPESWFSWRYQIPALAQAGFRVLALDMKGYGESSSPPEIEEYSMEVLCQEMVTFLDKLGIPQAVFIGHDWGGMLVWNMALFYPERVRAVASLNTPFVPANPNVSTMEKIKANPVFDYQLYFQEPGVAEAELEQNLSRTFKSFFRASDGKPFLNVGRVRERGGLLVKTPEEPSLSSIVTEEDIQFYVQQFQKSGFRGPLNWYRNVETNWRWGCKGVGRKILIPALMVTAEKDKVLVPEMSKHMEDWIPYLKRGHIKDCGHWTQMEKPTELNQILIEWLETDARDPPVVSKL
# Horse sEH [2] = target: T2, Horse sEH (Equus caballus, UniProt F7C407); assay: Primary screen (end point) of the sEH inhibitor library, PHOME substrate; settings: [I] = 100 nM, primary end-point screening; read-out: Horse sEH Inhibition (%) P.
# Description: (§1) Primary screening of the library was performed with an inhibitor concentration of 100 nM using PHOME as substrate ([22]). […] The plates were then mixed and incubated at 30°C for 5 min. Across each plate, 30 μL of the working substrate solution (270 μL of 5 mM PHOME solution in DMSO diluted with 3,680 μL of buffer) were added quickly to yield [S]final: 50 μM. Each plate was further incubated at room temperature (horse sEH: 60 min; cat sEH: 45 min; dog sEH: 30 min).
# Dog sEH [3] = target: T1, Dog sEH; assay: as above; settings: [I] = 100 nM, primary end-point screening; read-out: Dog sEH Inhibition (%) P.
# Description: as §1
# Cat sEH [4] = target: T3, Cat sEH (Felis catus, UniProt A0ABI7ZL20); assay: as above; settings: read-out: Cat sEH Inhibition (%) P.
# Description: as §1
# Horse sEH [5] = target: T2, Horse sEH; assay: Secondary screen (kinetic mode), PHOME substrate; settings: [I] = 100 nM, secondary kinetic mode screening; read-out: Horse sEH Inhibition (%) S.
# [6] = target: T4, sEH activity from liver cytosol of Pig (Sus scrofa, UniProt Q6Q2C2); assay: sEH inhibition potency (IC50), radioactive assay with [3H]t-DPPO, liver cytosol
# T4 construct: The radioactive fluorescent assay was used with the liver crude extracts; from tissue; host or cells: pig liver cytosol (100,000 g supernatant)
# T4 sequence (Q6Q2C2 1-555): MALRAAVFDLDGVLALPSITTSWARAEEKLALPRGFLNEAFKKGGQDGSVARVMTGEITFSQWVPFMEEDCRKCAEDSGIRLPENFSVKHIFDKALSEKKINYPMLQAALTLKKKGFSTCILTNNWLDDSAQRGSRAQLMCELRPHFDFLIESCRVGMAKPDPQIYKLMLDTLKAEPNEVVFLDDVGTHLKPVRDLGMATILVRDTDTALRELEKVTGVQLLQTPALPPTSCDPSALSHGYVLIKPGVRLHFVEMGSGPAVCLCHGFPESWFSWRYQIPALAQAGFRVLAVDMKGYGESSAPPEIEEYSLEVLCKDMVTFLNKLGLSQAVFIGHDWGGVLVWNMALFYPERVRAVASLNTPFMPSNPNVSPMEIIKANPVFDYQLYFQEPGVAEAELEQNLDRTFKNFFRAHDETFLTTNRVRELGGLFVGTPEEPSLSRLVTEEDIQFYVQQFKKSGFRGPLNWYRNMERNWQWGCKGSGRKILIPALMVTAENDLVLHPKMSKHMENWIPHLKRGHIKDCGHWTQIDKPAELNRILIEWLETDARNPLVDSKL
# Text: (§2) Fresh liver tissues samples (5–30 g) were collected promptly after death from healthy adult cat, dog and horse euthanized for reasons unrelated to this study, and whose bodies were given to science by the owners in line with federal regulations and protocol approved by the Institutional Animal Care and Use Committee at University of California Davis. Similarly, tissues from the other animals tested herein were collected from healthy animals immediately after being slaughter at the university abattoir. Because no animals were directly used or killed for this study, sample collections were exempted from approval by the Institutional Animal Care and Use Committee of the University of California Davis and Michigan State University. […] The tissues were flash-frozen in liquid nitrogen following removal, and then kept at −80°C until used. After thawing on ice, the samples were homogenized in chilled sodium phosphate buffer (20 mM pH 7.4) containing 5 mM EDTA, 1 mM DTT and 1 mM PMSF (tissue weight:buffer volume ratio 1:4). These homogenates were centrifuged at 100,000 g for 60 min at 4°C. The supernatant (the cytosolic fraction) was separated from the pellet, aliquoted and flash frozen in liquid nitrogen, then kept frozen at −80°C until usage.
# (§3) The IC50 values reported herein were determined using either a fluorescent based assay (CMNPC as substrate) for purified enzyme preparations or a radioactive based assay ([^3H]t-DPPO as substrate) for crude enzyme preparations ([20]). The fluorescent assay was used with the purified proteins. […] The substrate (CMNPC) was then added ([S]final = 5 μM). […] The radioactive […] assay was used with the liver crude extracts. Extracts were incubated with inhibitors ([I]final = 1–1,000 nM) at 30° C for 5 min in sodium phosphate buffer (pH 7.4) containing 0.1 mg/mL of BSA and 1% of DMSO, prior to substrate introduction ([^3H]t-DPPO [S]final: 50 μM; ~12,000 dpm/assay). The enzymes were incubated at 30°C for 10 min, and the reaction was quenched by the addition of 60 μL methanol and 200 μL isooctane, which extracts the remaining epoxide from the aqueous phase. […] Assays were performed in triplicate.
# [7] = target: sEH activity from liver cytosol of Sheep (Ovis aries, UniProt A0ACI6PZ20); assay: as above
# Text: as §2, §3
# Cat sEH [8] = target: T3, Cat sEH; assay: Secondary screen (kinetic mode), PHOME substrate; settings: read-out: Cat sEH Inhibition (%) S.
# [9] = liver cytosol, [3H]t-DPPO ([S]final = 5 μM) as substrate, read-out: IC50 (nM) Pig
# [10] = [3H]t-DPPO ([S]final = 5 μM) as substrate, read-out: IC50 (nM) Sheep
# T3 sequence (A0ABI7ZL20 entry or part of it): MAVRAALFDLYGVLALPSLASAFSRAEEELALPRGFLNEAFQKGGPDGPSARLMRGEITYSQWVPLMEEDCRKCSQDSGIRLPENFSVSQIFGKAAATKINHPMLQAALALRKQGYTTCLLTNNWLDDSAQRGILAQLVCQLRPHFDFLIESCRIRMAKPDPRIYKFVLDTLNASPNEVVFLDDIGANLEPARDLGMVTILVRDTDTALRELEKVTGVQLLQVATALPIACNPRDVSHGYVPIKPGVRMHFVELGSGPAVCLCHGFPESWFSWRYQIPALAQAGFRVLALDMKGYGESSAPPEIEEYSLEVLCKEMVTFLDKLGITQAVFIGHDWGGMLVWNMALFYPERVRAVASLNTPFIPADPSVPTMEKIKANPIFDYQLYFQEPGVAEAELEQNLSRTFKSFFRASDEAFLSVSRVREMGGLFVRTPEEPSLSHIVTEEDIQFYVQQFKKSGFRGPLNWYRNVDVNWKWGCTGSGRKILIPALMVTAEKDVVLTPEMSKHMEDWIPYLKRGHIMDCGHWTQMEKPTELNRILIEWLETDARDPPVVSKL
# T2 sequence (F7C407 entry or part of it): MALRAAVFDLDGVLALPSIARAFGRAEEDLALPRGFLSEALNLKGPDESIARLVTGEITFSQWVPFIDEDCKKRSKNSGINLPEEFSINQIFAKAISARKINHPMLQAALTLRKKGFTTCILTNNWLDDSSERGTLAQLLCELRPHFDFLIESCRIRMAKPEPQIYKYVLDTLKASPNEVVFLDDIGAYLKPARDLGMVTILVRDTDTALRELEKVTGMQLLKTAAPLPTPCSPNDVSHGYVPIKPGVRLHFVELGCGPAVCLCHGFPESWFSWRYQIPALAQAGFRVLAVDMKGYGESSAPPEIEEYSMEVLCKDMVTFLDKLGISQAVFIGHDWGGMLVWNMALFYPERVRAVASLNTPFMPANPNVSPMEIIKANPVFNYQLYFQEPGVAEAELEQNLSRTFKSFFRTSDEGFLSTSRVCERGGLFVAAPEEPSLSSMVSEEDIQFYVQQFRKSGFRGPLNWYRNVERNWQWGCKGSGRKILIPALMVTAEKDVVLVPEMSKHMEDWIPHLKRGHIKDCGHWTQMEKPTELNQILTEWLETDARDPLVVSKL
# Chain of sEH activity from liver cytosol of Sheep (A0ACI6PZ20 entry or part of it): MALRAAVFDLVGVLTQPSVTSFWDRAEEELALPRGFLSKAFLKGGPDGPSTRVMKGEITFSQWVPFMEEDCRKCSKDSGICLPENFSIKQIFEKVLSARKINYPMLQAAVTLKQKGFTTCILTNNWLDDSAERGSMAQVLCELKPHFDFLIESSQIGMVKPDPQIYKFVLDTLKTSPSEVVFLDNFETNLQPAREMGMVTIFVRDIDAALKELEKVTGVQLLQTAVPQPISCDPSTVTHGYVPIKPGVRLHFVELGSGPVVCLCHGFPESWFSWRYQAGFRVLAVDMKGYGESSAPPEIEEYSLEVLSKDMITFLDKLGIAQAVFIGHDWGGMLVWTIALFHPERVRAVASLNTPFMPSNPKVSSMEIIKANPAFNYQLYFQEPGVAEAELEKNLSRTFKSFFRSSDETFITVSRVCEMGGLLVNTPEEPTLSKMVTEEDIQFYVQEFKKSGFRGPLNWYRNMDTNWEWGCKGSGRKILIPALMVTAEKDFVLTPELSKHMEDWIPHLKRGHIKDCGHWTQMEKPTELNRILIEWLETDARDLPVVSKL
SMILES,inhibition at 0.1 µM (Dog sEH [1]) [%],inhibition at 0.1 µM (Horse sEH [2]) [%],inhibition at 0.1 µM (Dog sEH [3]) [%],inhibition at 0.1 µM (Cat sEH [4]) [%],inhibition at 0.1 µM (Horse sEH [5]) [%],"IC50 [6, 9] [nM]","IC50 [7, 10] [nM]",inhibition at 0.1 µM (Cat sEH [8]) [%],IC50 [6] [nM],"IC50 ([7]; read-out: IC50 (nM) Sheep, [3H]t-DPPO ([S]final = 5 μM) as substrate) [nM]"
"O=C(NCCCCOc1ccc(F)cc1)NC12CC3CC(CC(C3)C1)C2 [1,707]",83,101,< 90,94,87,6,2,99,,
"O=C(Nc1ccc(OC(F)(F)F)cc1)N[C@H]1CC[C@H](Oc2ccc(C(=O)O)cc2)CC1 [1,728, trans-4-{4-[3-(4-trifluoromethoxy-phenyl)-ureido]-cyclohexyloxy}-benzoic acid]",,,,,,,,,9,6
"N#CNC(=O)CCCCCCCCCCCNC(=O)NC12CC3CC(CC(C3)C1)C2 [1,845]",83,100,95,101,88,81,7,104,,
